Reference: ChEMBL document CHEMBL1201862, “PubChem BioAssay data set” (2004)
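Tested at 5 concentrations; 48 h exposure; 96-well plates; endpoints linearly interpolated, else capped at highest concentration. Abbreviation: GI50, concentration required for 50% inhibition of growth.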 Activity calls are given as the source filed them. No stated cut-off is given here; in the data, active = GI50 up to about 1.1 µM and inactive = higher.

Key:
Test in all cases: NCI-60 cell line screen, 48 h
HL-60 = tested on: HL-60
KM12 = tested on: KM12
SN12C = tested on: SN12C
IGROV-1 = tested on: IGROV-1
UACC-257 = tested on: UACC-257
OVCAR-5 = tested on: OVCAR-5
HCT-15 = tested on: HCT-15
HT-29 = tested on: HT-29
SR = tested on: SR
A498 = tested on: A498
ACHN = tested on: ACHN
HCT-116 = tested on: HCT-116
LOX IMVI = tested on: LOX IMVI
OVCAR-4 = tested on: OVCAR-4
PC-3 = tested on: PC-3
SW-620 = tested on: SW-620
EKVX = tested on: EKVX
A549 = tested on: A549
NCI-H23 = tested on: NCI-H23
BT-549 = tested on: BT-549
K562 = tested on: K562
SK-MEL-28 = tested on: SK-MEL-28
M14 = tested on: M14
Hs-578T = tested on: Hs-578T
SF-539 = tested on: SF-539
DU-145 = tested on: DU-145
MDA-MB-435 = tested on: MDA-MB-435
MDA-MB-231 = tested on: MDA-MB-231
MDA-N = tested on: MDA-N
NCI-H226 = tested on: NCI-H226
COLO 205 = tested on: COLO 205
HOP-92 = tested on: HOP-92
RXF 393 = tested on: RXF 393
786-0 = tested on: 786-0
NCI-H522 = tested on: NCI-H522
OVCAR-3 = tested on: OVCAR-3
SK-MEL-2 = tested on: SK-MEL-2
SNB-75 = tested on: SNB-75
NCI-H460 = tested on: NCI-H460
T47D = tested on: T47D
CCRF-CEM = tested on: CCRF-CEM
Malme-3M = tested on: Malme-3M
UO-31 = tested on: UO-31
MCF7 = tested on: MCF7
TK-10 = tested on: TK-10
U-251 = tested on: U-251
SK-OV-3 = tested on: SK-OV-3
OVCAR-8 = tested on: OVCAR-8
HOP-62 = tested on: HOP-62
SK-MEL-5 = tested on: SK-MEL-5
MOLT-4 = tested on: MOLT-4
SF-295 = tested on: SF-295
RPMI-8226 = tested on: RPMI-8226
CAKI-1 = tested on: CAKI-1
HCC 2998 = tested on: HCC 2998
SF-268 = tested on: SF-268
NCI/ADR-RES = tested on: NCI/ADR-RES
UACC-62 = tested on: UACC-62
SNB-19 = tested on: SNB-19

Measured: GI50

O=C1Oc2ccccc2C(=O)/C1=C\Nc1nc(-c2ccc(O)c(O)c2)cs1
3.39 µM: HCT-15
inactive: HL-60 2.32 µM | KM12 9.08 µM | SN12C 4.79 µM | IGROV-1 7.76 µM | UACC-257 3.61 µM | OVCAR-5 16.2 µM | HT-29 4.63 µM | SR 1.19 µM | A498 11.9 µM | ACHN 2.88 µM | HCT-116 2.7 µM | LOX IMVI 3.55 µM | OVCAR-4 10.7 µM | PC-3 3.24 µM | SW-620 2.44 µM | EKVX 12.7 µM | A549 6.67 µM | NCI-H23 2.81 µM | BT-549 5.77 µM | K562 1.36 µM | SK-MEL-28 9.12 µM | M14 3.22 µM | Hs-578T 15.3 µM | SF-539 5.46 µM | DU-145 4.94 µM | MDA-MB-435 4.88 µM | MDA-MB-231 5.7 µM | MDA-N 4.98 µM | NCI-H226 6.31 µM | COLO 205 2.3 µM | HOP-92 13.5 µM | RXF 393 6.03 µM | 786-0 2.54 µM | NCI-H522 2.05 µM | OVCAR-3 2.29 µM | SK-MEL-2 2.47 µM | SNB-75 5.56 µM | NCI-H460 5.05 µM | T47D 4.55 µM | CCRF-CEM 1.23 µM | Malme-3M 2.99 µM | UO-31 2.79 µM | MCF7 3.94 µM | TK-10 3.26 µM | U-251 5.01 µM | SK-OV-3 7.24 µM | OVCAR-8 4.14 µM | HOP-62 7.18 µM | SK-MEL-5 4.8 µM | SF-295 24.8 µM | RPMI-8226 1.53 µM | CAKI-1 4.63 µM | HCC 2998 7.14 µM | SF-268 5.25 µM | NCI/ADR-RES 4.46 µM | UACC-62 4.83 µM | SNB-19 11.7 µM
active: MOLT-4 0.447 µM
